From ChEMBL document CHEMBL1123294, “Dog coronary artery adenosine receptor: structure of the N6-aryl subregion” (J Med Chem, 1986)

Key:
[1] = Index of hydrophobicity (k'); type: ADME
Adenosine A2 receptor = Adenosine A2 receptor (UniProt P29275+P29274); conditions: Canis lupus familiaris
Description: Molar potency ratio (MPR) against adenosine A2 receptor of canine coronary artery

| Structure (SMILES) | k' [1] | MPR (Adenosine A2 receptor) |
| --- | --- | --- |
| CC(Nc1ncnc2c1ncn2C1O[C@H](CO)[C@@H](O)[C@H]1O)c1ccccc1 (stereo in doubt; 75a) | 1.89 |  |
| COc1cc(OC)c(OC)cc1CCNc1ncnc2c1ncn2C1O[C@H](CO)[C@@H](O)[C@H]1O (some centres not stated) | 2.63 | 0.4 |
| Cn1cccc1CCNc1ncnc2c1ncn2C1O[C@H](CO)[C@@H](O)[C@H]1O (some centres not stated) | 0.86 | 0.64 |
| OC[C@H]1OC(n2cnc3c(NCc4cccnc4)ncnc32)[C@H](O)[C@@H]1O (some centres not stated) | 0.29 | 0.69 |
| CC(Nc1ncnc2c1ncn2C1O[C@H](CO)[C@@H](O)[C@H]1O)c1cccc2ccccc12 (some centres not stated) | 6.32 |  |
| C[C@H](Cc1ccccc1)Nc1ncnc2c1ncn2[C@@H]1O[C@H](CO)[C@@H](O)[C@H]1O (stereo in doubt; 1a) [(R)-PIA] | 2.61 |  |
| Cc1ccc(C)c(Nc2ncnc3c2ncn3C2O[C@H](CO)[C@@H](O)[C@H]2O)c1 (some centres not stated) | 4.75 | 0.22 |
| Cc1ccc(Nc2ncnc3c2ncn3C2O[C@H](CO)[C@@H](O)[C@H]2O)c(C)c1 (some centres not stated) | 3.15 | 0.48 |
| Cc1ccc(Nc2ncnc3c2ncn3C2O[C@H](CO)[C@@H](O)[C@H]2O)cc1C (some centres not stated) | 5.98 | 0.043 |
| OC[C@H]1OC(n2cnc3c(NCCc4cnc5ccccc5c4)ncnc32)[C@H](O)[C@@H]1O (some centres not stated) | 3.64 | 1.2 |
| CC(Nc1ncnc2c1ncn2C1O[C@H](CO)[C@@H](O)[C@H]1O)c1ccccc1 (stereo in doubt; 38a) | 1.64 |  |
| OC[C@H]1OC(n2cnc3c(NCc4ccc(Cl)c(Cl)c4)ncnc32)[C@H](O)[C@@H]1O (some centres not stated) | 7.12 | 0.28 |
| OC[C@H]1OC(n2cnc3c(NC4CCCC[C@H]4c4ccccc4)ncnc32)[C@H](O)[C@@H]1O (some centres not stated) | 1.96 | 2.4 |
| Cc1cccc(CCNc2ncnc3c2ncn3C2O[C@H](CO)[C@@H](O)[C@H]2O)c1 (some centres not stated) | 4.64 | 1.1 |
| OC[C@H]1OC(n2cnc3c(NCCc4ccc5c(c4)OCO5)ncnc32)[C@H](O)[C@@H]1O (some centres not stated) | 2.52 | 0.42 |
| OC[C@H]1O[C@@H](n2cnc3c(NCc4ccco4)ncnc32)[C@H](O)[C@@H]1O [KINETIN RIBOSIDE] | 0.85 | 0.06 |
| C[C@@H](Nc1ncnc2c1ncn2[C@@H]1O[C@H](CO)[C@@H](O)[C@H]1O)c1ccccc1 | 1.64 | 0.52 |
| OC[C@H]1OC(n2cnc3c(NCc4cc(Cl)ccc4Cl)ncnc32)[C@H](O)[C@@H]1O (some centres not stated) | 5.97 | 1.8 |
| Cc1cccc(Nc2ncnc3c2ncn3C2O[C@H](CO)[C@@H](O)[C@H]2O)c1C (some centres not stated) | 2.58 | 0.13 |
| OC[C@H]1OC(n2cnc3c(NCc4cccs4)ncnc32)[C@H](O)[C@@H]1O (some centres not stated) | 1.04 | 0.23 |
| COc1ccc(Nc2ncnc3c2ncn3C2O[C@H](CO)[C@@H](O)[C@H]2O)cc1OC (some centres not stated) | 2.1 | 0.04 |
| OC[C@H]1OC(n2cnc3c(NOCCc4ccccc4)ncnc32)[C@H](O)[C@@H]1O (some centres not stated) | 2.75 |  |
| OC[C@H]1O[C@@H](n2cnc3c(NCc4cccc5ccccc45)ncnc32)[C@H](O)[C@@H]1O | 6.27 |  |
| CN(CCc1ccccc1)c1ncnc2c1ncn2C1O[C@H](CO)[C@@H](O)[C@H]1O (some centres not stated) | 3.79 |  |
| C[C@H](Cc1ccccc1)Nc1ncnc2c1ncn2[C@@H]1O[C@H](CO)[C@@H](O)[C@H]1O (stereo in doubt; 1) [(R)-PIA] | 2.57 |  |
